Series [1] in a line: Log Pow (octanol/water partition coefficient) of direct dyes. As to conditions: octanol/water partition coefficient of the dye.
Series [2] in a line: Color removal (ΔE) from HC blue 15 dyed, multiple-shampooed platinum bleached hair, with co-surfactants and cyclic compounds. As to conditions: 30 min 40° C.
Series [3] can be described thus: Color removal (ΔE) from hair swatches dyed with HC Blue 15, soaked 30 minutes at 40° C., shampooed once. As to the method:
Unless otherwise indicated, hair swatches were all treated using the same protocol. Specifically, 2 g dyed hair swatches were soaked in 80 g treatment solutions or samples in water for 30 minutes at 40° C., then the treated hair swatches were then shampooed once and blow-dried for evaluation.

Series [4] in a line: Controlled color removal of two-tone colored hair over one, three and six shampoo washes. As to conditions: 10% TBuMA Cl added to commercial shampoo containing about 9% SLES, up to six washes. From the text: The swatches were then washed with either the shampoo alone (control) or shampoo with TBuMA Cl and evaluated after one, three and six washes. Without addition of TBuMA Cl, the indigo color shifts to green as the number of shampoos increased. This is because Basic Red 51, a cationic direct dye, is washed out faster from hair by washing with shampoo than the HC Blue 15.

Series [5] is described as follows: Color removal (ΔE) from hair swatches dyed with hydroxyanthraquinoneaminopropyl methyl morpholinium methosulfate, 23° C. As to conditions: 6% SLES in water; 30 min 23° C.

Values joined by “and” are separate entries in the source; they are usually repeats but may differ in a detail not shown here. Identical values can stand only once.

With `CN(N=Cc1cc[n+](C)cc1)c1ccccc1` [BASIC YELLOW 87], the “Log Pow” value in series [1] is given as −1.69.

Turning to `Nc1ccc(N)c2c1C(=O)c1ccccc1C2=O` [DISPERSE VIOLET 1], in series [1], the “Log Pow” value amounted to 3.

Turning to `CCN(CC)c1ccc2c(-c3ccc(S(=O)(=O)[O-])cc3S(=O)(=O)[O-])c3ccc(=[N+](CC)CC)cc-3oc2c1.[Na+]` [ACID RED 52], the “Log Pow” value in series [1] was 1.3.

On to `CCN(Cc1cccc(S(=O)(=O)[O-])c1)c1ccc(C(=C2C=CC(=[N+](CC)Cc3cccc(S(=O)(=O)[O-])c3)C=C2)c2ccccc2S(=O)(=O)[O-])cc1.[Na+].[Na+]` [ACID BLUE 9], for which the “Log Pow” value in series [1] is listed as −0.32.

Turning to `Cn1cc[n+](C)c1N=Nc1ccc(N)cc1.[Cl-]` [BASIC ORANGE 31], the “Log Pow” value in series [1] is given as −2.31.

With `O=C([O-])C1=NN(c2ccc(S(=O)(=O)[O-])cc2)C(=O)C1N=Nc1ccc(S(=O)(=O)[O-])cc1.[Na+].[Na+].[Na+]` (stereo not drawn) [ACID YELLOW 23], in series [1], the “Log Pow” value is reported as −10.17.

`Nc1ccc(NCCO)c([N+](=O)[O-])c1` [HC RED NO.3]: in series [1], the “Log Pow” value is reported as −0.42.

Consider `O=C([O-])c1c(Cl)c(Cl)c(Cl)c(Cl)c1-c1c2cc(Br)c(=O)c(Br)c-2oc2c(Br)c([O-])c(Br)cc12.[Na+].[Na+]` [ACID RED 92], for which the “Log Pow” value in series [1] came to 3.

Consider `CCO` [EtOH, ethanol], for which the ΔE in series [2] (16% EtOH, hair pre-shampooed 4×) came to 1.77; in series [2] (16% EtOH, hair pre-shampooed 6×) it was 1.8.

As for `CN(C)c1ccc(N=Nc2n(C)cc[n+]2C)cc1.[Cl-]` [BASIC RED 51], the entries for the “Log Pow” value in series [1] and in series [1] (listed as Basic Red 51) were −1.97 and “around −1.97”, respectively.

For `Nc1c(N=Nc2ccc([N+](=O)[O-])cc2)c(S(=O)(=O)[O-])cc2cc(S(=O)(=O)[O-])c(N=Nc3ccccc3)c(O)c12.[Na+].[Na+]` [ACID BLACK 1], the “Log Pow” value in series [1] was determined as 1.2.

Consider `O=[N+]([O-])c1cc(O)ccc1NCCO` [3-NITRO-P-HYDROXYETHYLAMINOPHENOL], for which the “Log Pow” value in series [1] is on record as 0.21.

With `CCCC[N+](C)(CCCC)CCCC.[Cl-]` [TBuMA Cl, tributylmethyl ammonium chloride], the ΔE in series [3] (10 wt.% organic salt, 0 wt. % SLES, 30 min 40° C.) is recorded as 1.8. Also, in series [4] (versus shampoo alone), the “leaching of Basic Red 51” value is “deterred or inhibited” and the “removal of HC Blue 15” value is on record as “accelerated”. For the same compound, the “indigo color tone during shampooing” value in series [4] was “maintained”. In series [2] (10% TBuMA Cl, hair pre-shampooed 4×), this compound came in with a ΔE of 3.63.

For `Cc1cc(N(CCO)CCO)ccc1N=Nc1ccc(N)cc1` [HC YELLOW NO. 7], the “Log Pow” value in series [1] is listed as 2.59.

As for `Nc1cc(S(=O)(=O)[O-])cc2cc(S(=O)(=O)[O-])c(N=Nc3ccccc3)c(O)c12.[Na+].[Na+]` [ACID RED 33], the “Log Pow” value in series [1] came to 0.5.

For the compound `O=[N+]([O-])c1cc(N(CCO)CCO)ccc1NCCCO` [HC VIOLET NO 2], the “Log Pow” value in series [1] stood at 0.608.

As to `NCCNc1ccc(OCCO)cc1[N+](=O)[O-]` [HC ORANGE NO. 2], in series [1], the “Log Pow” value came to 0.13.

As for sodium laureth sulfate [SLES], the ΔE in series [3] (0 wt.% organic salt, 3 wt. % SLES, 30 min 40° C.) is 21.08 and 21.1; in series [3] (0 wt.% organic salt, 6 wt. % SLES, 30 min 40° C.), 21.81 and 21.4; in series [3] (0 wt.% organic salt, 12 wt. % SLES, 30 min 40° C.), 21.84; in series [3] (SLES alone, over the concentrations tested (3-12 wt. %)) it was 21-22; in series [5] it was 18.2; in series [2] (6% SLES, hair pre-shampooed 4×) it was 19.3. In series [2] (6% SLES, hair pre-shampooed 6×), this compound returned a ΔE of 15.01.

As to HC RED NO. 7, the “Log Pow” value in series [1] stood at 0.13.

On to `Cc1ccc(Nc2ccc(O)c3c2C(=O)c2ccccc2C3=O)c(S(=O)(=O)[O-])c1.[Na+]` [ACID VIOLET 43], for which, in series [1], the “Log Pow” value is 3.1.

On to `C[N+](C)(C)c1cccc(N=C2C=C(N)c3c(O)c(Br)cc(N)c3C2=O)c1.[Cl-]` [BASIC BLUE 99], for which, in series [1], the “Log Pow” value came to 1.88.

As to ACID YELLOW 3, the “Log Pow” value in series [1] is on record as −1.05.

`OCc1ccccc1` [Benzyl Alcohol, benzyl alcohol] registered a ΔE in series [2] (10% Benzyl Alcohol, hair pre-shampooed 6×) of 9.4.

As for `CNc1cc(OCC(O)CO)ccc1[N+](=O)[O-]` (stereo not drawn) [2-NITRO-5-GLYCERYL METHYLANILINE], in series [1], the “Log Pow” value is 0.89.

As for `CC1=CC(=C(c2cc(C)c(N)c(C)c2)c2c(Cl)cccc2Cl)C=C(C)C1=N.O=P(O)(O)O` [HC BLUE NO. 15], the “Log Pow” value is recorded as 3.47 in series [1], “around 3.47” in series [1] (listed as HC Blue 15) and “around 3.47” in series [1] (listed as HC blue 15).

With `C[N+](C)(C)c1ccc2ccc(O)c(N=Nc3ccc(N)c([N+](=O)[O-])c3)c2c1.[Cl-]` [BASIC BROWN 17], the “Log Pow” value in series [1] was −0.15.

Consider `COc1ccc([N+](=O)[O-])c(NCCN)c1.Cl` [HC YELLOW NO.9], for which, in series [1], the “Log Pow” value was 1.3.

In the case of `O=S(=O)(O)c1cc(S(=O)(=O)O)c2c(/N=N\c3ccc(S(=O)(=O)O)c4ccccc34)c(O)ccc2c1` [ACID RED18], the “Log Pow” value in series [1] worked out at 1.63.

As to `O=S(=O)([O-])c1ccc(N=Nc2c(O)ccc3ccccc23)cc1.[Na+]` [ACID ORANGE 7], the “Log Pow” value in series [1] was 1.4.

`COS(=O)(=O)[O-].C[N+]1(CCCNc2ccc(O)c3c2C(=O)c2ccccc2C3=O)CCOCC1` [hydroxyanthraquinoneaminopropyl methyl morpholinium methosulfate]: the entries for the “Log Pow” value in series [1] and in series [1] (listed as hydroxyanthraquinoneaminopropyl methyl morpholinium methosulfate) were 0.89 and “around 0.89”, respectively.

For `O=[N+]([O-])c1cc(N(CCO)CCO)ccc1NCCO` [HC BLUE NO. 2], in series [1], the “Log Pow” value is recorded as −0.32.

Turning to `Cc1cc(N)c([N+](=O)[O-])cc1NCCO` [HC VIOLET NO 1], the “Log Pow” value in series [1] turned out to be 0.67.

As to `O=C1c2ccccc2C(=O)c2c(NCC(O)CO)ccc(NCC(O)CO)c21` (stereo not drawn) [HC BLUE NO. 14], the “Log Pow” value in series [1] is reported as 2.09.

Regarding `Cc1ccc(Nc2ccc(Nc3ccc(C)cc3S(=O)(=O)[O-])c3c2C(=O)c2ccccc2C3=O)c(S(=O)(=O)[O-])c1.[Na+].[Na+]` [ACID GREEN 25], the “Log Pow” value in series [1] is on record as 5.71.

Take `CC1=NN(c2ccccc2)C(=O)C1N=Nc1cccc([N+](C)(C)C)c1.[Cl-]` (stereo not drawn) [BASIC YELLOW 57]: the “Log Pow” value in series [1] was 0.06.

As for `Nc1ccc(O)cc1[N+](=O)[O-]` [4-AMINO-3-NITROPHENOL], in series [1], the “Log Pow” value is given as 1.19.

For the origin of these results see patent US11173102B1, “Methods and compositions for removing color from color-treated hair” (L'Oreal, priority 2020, dated 2021).
